Drawing on patent US11884647B2, “Compounds and methods for targeting pathogenic blood vessels” (THE REGENTS OF THE UNIVERSITY OF CALIFORNIA, priority 2019, dated 2024), this text covers cytotoxicity and Cell death for 28 compounds.

The test system of experiment [1] is tumor endothelial cells (CT26.CL25 colon cancer tumor). Briefly: Colon CT26 ex vivo model of tumor angiogenesis. Type of experiment: cell-based. As to conditions: Mus musculus, CT26, 48 h, read-out: Cell death. The method in brief:
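Explant pieces of CT26 tumor (about 0.075 mm^3) were embedded in Matrigel and grown in endothelial growth medium at 37 °C for about 7 days until endothelial outgrowth appeared, then treated. Cell death was read about 48 h after drug addition by fluorescein diacetate (live) and propidium iodide (dead) staining with red/green imaging.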

Experiment [2] concerns tumor endothelial cells (LL/2 lung cancer tumor). Briefly: Lung LL2 ex vivo model of tumor angiogenesis. Type of experiment: cell-based, mouse. As to conditions: for cytotoxicity at 40 µM / cytotoxicity at 20 µM: Mus musculus, Endothelial cell, 48 h, read-out: Cell death. The method in brief:
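Read-out is live/dead fluorescence imaging (fluorescein diacetate green, propidium iodide red, 10 min at 37° C) at 2×, taken e.g. 48 h after drug addition. Fragments of mouse LL2 tumor are cultured in Matrigel with endothelial growth medium, usually 4 days, until new endothelial cells grow out, then treated.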

Each structure is given as a SMILES string.

For the compound `CCN(CC)CCNC(=O)c1ccc2ncc(S(=O)(=O)c3ccc(OC)cc3)c(N3CCCN(C)CC3)c2c1` [compound 166, N-(2-(diethylamino)ethyl)-3-((4-methoxyphenyl)sulfonyl)-4-(4-methyl-1,4-diazepan-1-yl)quinoline-6-carboxamide], the cytotoxicity at 40 µM came out at 60% in experiment [1] and 10% in experiment [2].
Take `CCOC(=O)c1ccc2ncc(S(=O)(=O)c3ccc(CC)cc3)c(N3CCC(O)CC3)c2c1` [compound 62, ethyl 3-((4-ethylphenyl)sulfonyl)-4-(4-hydroxypiperidin-1-yl)quinoline-6-carboxylate]: the cytotoxicity at 40 µM in experiment [1] is 70%; in experiment [2], 30%.
For `CCCCCCCOc1ccc(S(=O)(=O)c2cnc3ccc([S+](C)[O-])cc3c2N2CCC(N3CCN(C)CC3)CC2)cc1` (centres unmarked) [compound 253, 3-((4-(heptyloxy)phenyl)sulfonyl)-4-(4-(4-methylpiperazin-1-yl)piperidin-1-yl)-6-(methylsulfinyl)quinoline], the cytotoxicity at 10 µM in experiment [1] was determined as 80%. Besides, in experiment [2], the cytotoxicity at 20 µM was 100%.
For `CCOC(=O)c1ccc2ncc(S(=O)(=O)c3ccc(CC)cc3)c(NN3CCN(C)CC3)c2c1` [compound 84, ethyl 3-((4-ethylphenyl)sulfonyl)-4-((4-methylpiperazin-1-yl)amino)quinoline-6-carboxylate], the cytotoxicity at 40 µM in experiment [1] and in experiment [2] was 100% throughout.
`CCc1ccc(S(=O)(=O)c2cnc3ccc(OC(F)(F)F)cc3c2-n2ccnc2)cc1` [compound 118, 3-((4-ethylphenyl)sulfonyl)-4-(1H-imidazol-1-yl)-6-(trifluoromethoxy)quinoline]: the cytotoxicity at 20 µM in experiment [1] and in experiment [2] was 100% in each case.
Consider `CCCCOc1ccc(S(=O)(=O)c2cnc3ccc([S+](C)[O-])cc3c2N2CCC(N3CCCC(O)C3)CC2)cc1` (centres unmarked) [compound 208, 1′-(3-((4-butoxyphenyl)sulfonyl)-6-(methylsulfinyl)quinolin-4-yl)-[1,4′-bipiperidin]-3-ol], for which the cytotoxicity at 40 µM in experiment [1] is 20%; in experiment [2], 50%.
In the same order, the values of `COc1ccc(S(=O)(=O)c2cnc3ccc(OC(F)(F)F)cc3c2N2CCCN(C)CC2)cc1OC` [compound 57, 3-((3,4-dimethoxyphenyl)sulfonyl)-4-(4-methyl-1,4-diazepan-1-yl)-6-(trifluoromethoxy)quinoline] are 60% and 40%.
In the case of `CCCCOc1ccc(S(=O)(=O)c2cnc3ccc(C(=O)OCC)cc3c2N2CCC(N3CCC(O)CC3)CC2)cc1` [compound 161, ethyl 3-((4-butoxyphenyl)sulfonyl)-4-(4-hydroxy-[1,4′-bipiperidin]-1′-yl)quinoline-6-carboxylate], the cytotoxicity at 40 µM in experiment [1] is 100%; in experiment [2] it was 90%.
Regarding `CCc1ccc(S(=O)(=O)c2cnc3ccc(OC(F)(F)F)cc3c2N2CCC(OCCN(CC)CC)CC2)cc1` [compound 101, N,N-diethyl-2-((1-(3-((4-ethylphenyl)sulfonyl)-6-(trifluoromethoxy)quinolin-4-yl)piperidin-4-yl)oxy)ethan-1-amine], the cytotoxicity at 20 µM in experiment [1] worked out at 50%. Also, the Cell death in experiment [2] (Lung LL2 ex vivo, Conc. 20 μm, drug treatment two days) was found to be 100%.
On to `CCCCCCCOc1ccc(S(=O)(=O)c2cnc3ccc([S+](C)[O-])cc3c2N2CCC(N3CCCCC3)CC2)cc1` (centres unmarked) [compound 221, 4-([1,4′-bipiperidin]-1′-yl)-3-((4-(heptyloxy)phenyl)sulfonyl)-6-(methylsulfinyl)quinoline], for which the cytotoxicity at 40 µM in experiment [1] and in experiment [2] was 100% throughout.
Regarding `CCCCOc1ccc(S(=O)(=O)c2cnc3ccc(C(=O)OCC)cc3c2N2CCSCC2)cc1` [compound 191, ethyl 3-((4-butoxyphenyl)sulfonyl)-4-thiomorpholinoquinoline-6-carboxylate], the cytotoxicity at 40 µM in experiment [1] turned out to be 10%; in experiment [2] it was 30%.
Regarding `CCCCCCCOc1ccc(S(=O)(=O)c2cnc3ccc([S+](C)[O-])cc3c2N2CCC(N3CCCN(C)CC3)CC2)cc1` (centres unmarked) [compound 256, 3-((4-(heptyloxy)phenyl)sulfonyl)-4-(4-(4-methyl-1,4-diazepan-1-yl)piperidin-1-yl)-6-(methylsulfinyl)quinoline], the cytotoxicity at 10 µM in experiment [1] was determined as 90%. In addition, the cytotoxicity at 20 µM in experiment [2] stood at 100%.
As to `CCN(CC)c1c(S(=O)(=O)c2ccc(OC)c(OC)c2)cnc2ccc(OC(F)(F)F)cc12` [compound 68, 3-((3,4-dimethoxyphenyl)sulfonyl)-N,N-diethyl-6-(trifluoromethoxy)quinolin-4-amine], the cytotoxicity at 40 µM amounted to 50% in experiment [1] and 80% in experiment [2].
For the compound `COc1ccc(S(=O)(=O)c2cnc3ccc([N+](=O)[O-])cc3c2NN2CCN(C)CC2)cc1` [compound 94, 3-((4-methoxyphenyl)sulfonyl)-N-(4-methylpiperazin-1-yl)-6-nitroquinolin-4-amine], the figures for the cytotoxicity at 40 µM in experiment [1] and in experiment [2] were 0% and 20%, respectively.
Regarding `CCc1ccc(S(=O)(=O)c2cnc3ccc(OC(F)(F)F)cc3c2N2CCCC(O)C2)cc1` (centres unmarked) [compound 82, 1-(3-((4-ethylphenyl)sulfonyl)-6-(trifluoromethoxy)quinolin-4-yl)piperidin-3-ol], the cytotoxicity at 40 µM in experiment [1] is 10%; in experiment [2], 60%.
In the same order, the values of `CCCCOc1ccc(S(=O)(=O)c2cnc3ccc([S+](C)[O-])cc3c2N2CCCN(CCN3CCCCC3)CC2)cc1` (centres unmarked) [compound 209, 3-((4-butoxyphenyl)sulfonyl)-6-(methylsulfinyl)-4-(4-(2-(piperidin-1-yl)ethyl)-1,4-diazepan-1-yl)quinoline] are 90% and 60%.
On to `CCOC(=O)c1ccc2ncc(S(=O)(=O)c3ccc(CC)cc3)c(N3CCCN(C)CC3)c2c1` [compound 63, ethyl 3-((4-ethylphenyl)sulfonyl)-4-(4-methyl-1,4-diazepan-1-yl)quinoline-6-carboxylate], for which the cytotoxicity at 40 µM in experiment [1] was determined as 70%; in experiment [2], 50%.
With `CCCCCCCOc1ccc(S(=O)(=O)c2cnc3ccc([S+](C)[O-])cc3c2N2CCC(N3CCN(CCO)CC3)CC2)cc1` (centres unmarked) [compound 257, 2-(4-(1-(3-((4-(heptyloxy)phenyl)sulfonyl)-6-(methylsulfinyl)quinolin-4-yl)piperidin-4-yl)piperazin-1-yl)ethan-1-ol], the cytotoxicity at 10 µM in experiment [1] was determined as 100%. In addition, the cytotoxicity at 20 µM in experiment [2] turned out to be 100%.
For `COc1ccc(S(=O)(=O)c2cnc3ccc(OC(F)(F)F)cc3c2N2CCCC(O)C2)cc1OC` (centres unmarked) [compound 70, 1-(3-((3,4-dimethoxyphenyl)sulfonyl)-6-(trifluoromethoxy)quinolin-4-yl)piperidin-3-ol], the values for the cytotoxicity at 40 µM in experiment [1] and in experiment [2] were 10% and 40%, respectively.
In the same order, the values of `COc1ccc(S(=O)(=O)c2cnc3ccc(OC(F)(F)F)cc3c2N2CCC(O)CC2)cc1` [compound 44, 1-(3-((4-methoxyphenyl)sulfonyl)-6-(trifluoromethoxy)quinolin-4-yl)piperidin-4-ol] are 0% and 50%.
On to `CCCCCCCOc1ccc(S(=O)(=O)c2cnc3ccc(SC)cc3c2N2CCCN(C)CC2)cc1` [compound 218, 3-((4-(heptyloxy)phenyl)sulfonyl)-4-(4-methyl-1,4-diazepan-1-yl)-6-(methylthio)quinoline], for which the cytotoxicity at 40 µM in experiment [1] worked out at 90%; in experiment [2], 100%.
In the same order, the values of `CCCCOc1ccc(S(=O)(=O)c2cnc3ccc(SC)cc3c2N2CCC(N3CCCCC3)CC2)cc1` [compound 159, 4-([1,4′-bipiperidin]-1′-yl)-3-((4-butoxyphenyl)sulfonyl)-6-(methylthio)quinoline] are 100% and 100%.
In the same order, the values of `CCCCOc1ccc(S(=O)(=O)c2cnc3ccc(C(=O)OCC)cc3c2N2CCC(N3CCOCC3)CC2)cc1` [compound 212, ethyl 3-((4-butoxyphenyl)sulfonyl)-4-(4-morpholinopiperidin-1-yl)quinoline-6-carboxylate] are 10% and 50%.
Regarding `COc1ccc(S(=O)(=O)c2cnc3ccc(SC)cc3c2N2CCCN(C)CC2)cc1OC` [compound 154, 3-((3,4-dimethoxyphenyl)sulfonyl)-4-(4-methyl-1,4-diazepan-1-yl)-6-(methylthio)quinoline], the cytotoxicity at 40 µM in experiment [1] and in experiment [2] was 30% each time.
On to `COc1ccc(S(=O)(=O)c2cnc3ccc(OC(F)(F)F)cc3c2-n2cncn2)cc1OC` [compound 89, 3-((3,4-dimethoxyphenyl)sulfonyl)-4-(1H-1,2,4-triazol-1-yl)-6-(trifluoromethoxy)quinoline], for which, in experiment [1], the cytotoxicity at 10 µM is 100%. In addition, the cytotoxicity at 20 µM in experiment [2] stood at 100%.
For `CCOC(=O)C1CCN(c2c(S(=O)(=O)c3ccc(CC)cc3)cnc3ccc(OC(F)(F)F)cc23)CC1` [compound 47, ethyl 1-(3-((4-ethylphenyl)sulfonyl)-6-(trifluoromethoxy)quinolin-4-yl)piperidine-4-carboxylate], the cytotoxicity at 40 µM in experiment [1] was 10%; in experiment [2], 50%.
In the same order, the values of `CCCCOc1ccc(S(=O)(=O)c2cnc3ccc(C(=O)N(CC)CC)cc3c2N2CCC(N3CCCCC3)CC2)cc1` [compound 201, 4-([1,4′-bipiperidin]-1′-yl)-3-((4-butoxyphenyl)sulfonyl)-N,N-diethylquinoline-6-carboxamide] are 10% and 30%.
For `CCc1ccc(S(=O)(=O)c2cnc3ccc(OC(F)(F)F)cc3c2NCCO)cc1` [compound 95, 2-((3-((4-ethylphenyl)sulfonyl)-6-(trifluoromethoxy)quinolin-4-yl)amino)ethan-1-ol], the cytotoxicity at 40 µM was 0% in experiment [1] and 10% in experiment [2].
